The target in this assay is T1, AsPC-1 HiBiT-KRASG12D (Homo sapiens, UniProt P01116, G12D).
T1 construct: insert the HiBiT tag onto the N-terminus of one or more of the endogenous KRAS alleles; endogenous in cells; host or cells: AsPC-1 (ATCC CRL-1682), CRISPR-Cas9 knock-in clone, one tagged allele
Kind of assay: HiBiT degradation assay (G12D), AsPC-1 HiBiT-KRASG12D cells. Type of assay: cell-based. The settings on record: 24 hours treatment; for Dmax: ASPC1, AsPC-1 HiBiT-KRASG12D cells, maximum degradation observed; for DC50: AsPC-1 HiBiT-KRASG12D cells, HiBiT luminescence. In a few lines: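 Endogenous KRASG12D levels were measured via an N-terminal HiBiT tag knocked into AsPC-1 cells. Cells received compound titrations for 24 hours, and HiBiT luminescence was detected after a 45-minute lytic reagent incubation at room temperature.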

Structures are written as SMILES.

T1 sequence (P01116 1-188 isoform P01116-2 G12D): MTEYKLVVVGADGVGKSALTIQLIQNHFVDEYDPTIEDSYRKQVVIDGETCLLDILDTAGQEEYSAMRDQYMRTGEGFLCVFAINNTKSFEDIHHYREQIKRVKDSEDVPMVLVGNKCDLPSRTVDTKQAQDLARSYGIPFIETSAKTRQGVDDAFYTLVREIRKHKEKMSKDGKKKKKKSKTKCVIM

In turn, `C#Cc1c(F)ccc2cc(O)cc(-c3ncc4c(N5CC6CCC(C5)N6)nc(OCCN5CCC6(CC5)CC(Oc5cc([C@@H](C(=O)N7C[C@H](O)C[C@H]7C(=O)N[C@@H](C)c7ccc(-c8scnc8C)cc7)C(C)C)on5)C6)nc4c3F)c12` [Compound 159, (2S,4R)-1-[(2S)-2-{3-[(7-{2-[(4-{3,8-diazabicyclo[3.2.1]octan-3-yl}-7-(8-ethynyl-7-fluoro-3-hydroxynaphthalen-1-yl)-8-fluoropyrido[4,3-d]pyrimidin-2-yl)oxy]ethyl}-7-azaspiro[3.5]nonan-2-yl)oxy]-1,2-oxazol-5-yl}-3-methylbutanoyl]-4-hydroxy-N-[(1S)-1-[4-(4-methyl-1,3-thiazol-5-yl)phenyl]ethyl]pyrrolidine-2-carboxamide] yielded a Dmax of 60 to 80% and a DC50 of under 0.6 µM.
The molecule `CCc1cccc2cc(O)cc(-c3ncc4c(N5CC6CCC(C5)N6)nc(OC[C@]56CCCN5[C@@H](COc5cc([C@H](C(=O)N7C[C@H](O)C[C@H]7C(=O)N[C@@H](C)c7ccc(-c8scnc8C)cc7)C(C)C)on5)CC6)nc4c3F)c12` [Compound 27, (2S,4R)-1-[(2R)-2-(3-{[(3R,7aR)-7a-{[(4-{3,8-diazabicyclo[3.2.1]octan-3-yl}-7-(8-ethyl-3-hydroxynaphthalen-1-yl)-8-fluoropyrido[4,3-d]pyrimidin-2-yl)oxy]methyl}-hexahydro-1H-pyrrolizin-3-yl]methoxy}-1,2-oxazol-5-yl)-3-methylbutanoyl]-4-hydroxy-N-[(1S)-1-[4-(4-methyl-1,3-thiazol-5-yl)phenyl]ethyl]pyrrolidine-2-carboxamide] returned a DC50 of under 0.6 µM.
`CCc1cccc2cc(O)cc(-c3ncc4c(N5CC6CCC(C5)N6)nc(OC[C@@]56CCCN5[C@H](COC(=O)N5CC7(C5)CN(c5cc([C@@H](C(=O)N8C[C@H](O)C[C@H]8C(=O)N[C@@H](C)c8ccc(-c9scnc9C)cc8)C(C)C)on5)C7)CC6)nc4c3F)c12` [Compound 113, [(3S,7aS)-7a-{[(4-{3,8-diazabicyclo[3.2.1]octan-3-yl}-7-(8-ethyl-3-hydroxynaphthalen-1-yl)-8-fluoropyrido[4,3-d]pyrimidin-2-yl)oxy]methyl}-hexahydro-1H-pyrrolizin-3-yl]methyl 6-{5-[(2S)-1-[(2S,4R)-4-hydroxy-2-{[(1S)-1-[4-(4-methyl-1,3-thiazol-5-yl)phenyl]ethyl]carbamoyl}pyrrolidin-1-yl]-3-methyl-1-oxobutan-2-yl]-1,2-oxazol-3-yl}-2,6-diazaspiro[3.3]heptane-2-carboxylate] had a Dmax of 20 to 60% and a DC50 of under 0.6 µM.
On the same counts, the results for `CCc1cccc2cc(O)cc(-c3ncc4c(N5CC6CCC(C5)N6)nc(OCCN5CCC(F)(CN6CCN(c7cc([C@H](C(=O)N8C[C@H](O)C[C@H]8C(=O)N[C@@H](C)c8ccc(-c9scnc9C)cc8)C(C)C)on7)[C@@H](C)C6)CC5)nc4c3F)c12` [Compound 209, (2S,4R)-1-[(2R)-2-{3-[(2S)-4-[(1-{2-[(4-{3,8-diazabicyclo[3.2.1]octan-3-yl}-7-(8-ethyl-3-hydroxynaphthalen-1-yl)-8-fluoropyrido[4,3-d]pyrimidin-2-yl)oxy]ethyl}-4-fluoropiperidin-4-yl)methyl]-2-methylpiperazin-1-yl]-1,2-oxazol-5-yl}-3-methylbutanoyl]-4-hydroxy-N-[(1S)-1-[4-(4-methyl-1,3-thiazol-5-yl)phenyl]ethyl]pyrrolidine-2-carboxamide] are 80 to 100% and under 0.6 µM.
Take `CCc1cccc2cc(O)cc(-c3ncc4c(N5CC6CCC(C5)N6)nc(OCCN5CCC(CCOc6cc([C@@H](C(=O)N7C[C@H](O)C[C@H]7C(=O)N[C@@H](C)c7ccc(-c8scnc8C)cc7)C(C)C)on6)CC5)nc4c3F)c12` [Compound 248]: the DC50 is over 3 µM.
Turning to `CCc1cccc2cc(O)cc(-c3ncc4c(N5CC6CCC(C5)N6)nc(OC[C@@H]5CC[C@@H](COC(=O)N6CCN(c7cc([C@H](C(=O)N8C[C@H](O)C[C@H]8C(=O)N[C@@H](C)c8ccc(-c9scnc9C)cc8)C(C)C)on7)C[C@@H]6C)N5C)nc4c3F)c12` [Compound 261, [(2S,5S)-5-{[(4-{3,8-diazabicyclo[3.2.1]octan-3-yl}-7-(8-ethyl-3-hydroxynaphthalen-1-yl)-8-fluoropyrido[4,3-d]pyrimidin-2-yl)oxy]methyl}-1-methylpyrrolidin-2-yl]methyl (2S)-4-{5-[(2R)-1-[(2S,4R)-4-hydroxy-2-{[(1S)-1-[4-(4-methyl-1,3-thiazol-5-yl)phenyl]ethyl]carbamoyl}pyrrolidin-1-yl]-3-methyl-1-oxobutan-2-yl]-1,2-oxazol-3-yl}-2-methylpiperazine-1-carboxylate], the Dmax was 80 to 100% and the DC50 was under 0.6 µM.
The corresponding values for `C#Cc1c(F)ccc2cccc(-c3ncc4c(N5CC6CCC(C5)N6)nc(OC[C@@]56CCCN5[C@@H](COC(=O)N5CCN(c7cc([C@H](C(=O)N8C[C@H](O)C[C@H]8C(=O)N[C@@H](C)c8ccc(-c9scnc9C)cc8)C(C)C)on7)CC5)CC6)nc4c3F)c12` (relative stereo) [Compound 334, [(3R,8S)-8-[[4-(3,8-diazabicyclo[3.2.1]octan-3-yl)-7-(8-ethynyl-7-fluoro-1-naphthyl)-8-fluoro-pyrido[4,3-d]pyrimidin-2-yl]oxymethyl]-1,2,3,5,6,7-hexahydropyrrolizin-3-yl]methyl 4-[5-[(1R)-1-[(2S,4R)-4-hydroxy-2-[[(1S)-1-[4-(4-methylthiazol-5-yl)phenyl]ethyl]carbamoyl]pyrrolidine-1-carbonyl]-2-methyl-propyl]isoxazol-3-yl]piperazine-1-carboxylate] are 60 to 80% and under 0.6 µM.
The molecule `CCc1cccc2cc(O)cc(-c3ncc4c(N5CC6CCC(C5)N6)nc(OCCN5CC[C@H]6CN(c7cc([C@@H](C(=O)N8C[C@H](O)C[C@H]8C(=O)N[C@@H](C)c8ccc(-c9scnc9C)cc8)C(C)C)on7)C[C@H]6C5)nc4c3F)c12` (relative stereo) [Compound 70, (2S,4R)-1-[(2R*)-2-{3-[(3aR**,7aR***)-5-{2-[(4-{3,8-diazabicyclo[3.2.1]octan-3-yl}-7-(8-ethyl-3-hydroxynaphthalen-1-yl)-8-fluoropyrido[4,3-d]pyrimidin-2-yl)oxy]ethyl}-octahydro-1H-pyrrolo[3,4-c]pyridin-2-yl]-1,2-oxazol-5-yl}-3-methylbutanoyl]-4-hydroxy-N-[(1S)-1-[4-(4-methyl-1,3-thiazol-5-yl)phenyl]ethyl]pyrrolidine-2-carboxamide] showed a DC50 of over 3 µM.
`C#Cc1c(F)ccc2cc(O)cc(-c3ncc4c(N5CC6CCC(C5)N6)nc(OC[C@]56CCCN5[C@H](COC(=O)N5CCN(c7cc([C@H](C(=O)N8C[C@H](O)C[C@H]8C(=O)N[C@@H](C)c8ccc(-c9scnc9C)cc8)C(C)C)on7)CC5)CC6)nc4c3F)c12` [Compound 56, [(3S,7aR)-7a-{[(4-{3,8-diazabicyclo[3.2.1]octan-3-yl}-7-(8-ethynyl-7-fluoro-3-hydroxynaphthalen-1-yl)-8-fluoropyrido[4,3-d]pyrimidin-2-yl)oxy]methyl}-hexahydro-1H-pyrrolizin-3-yl]methyl 4-{5-[(2R)-1-[(2S,4R)-4-hydroxy-2-{[(1S)-1-[4-(4-methyl-1,3-thiazol-5-yl)phenyl]ethyl]carbamoyl}pyrrolidin-1-yl]-3-methyl-1-oxobutan-2-yl]-1,2-oxazol-3-yl}piperazine-1-carboxylate] had a Dmax of 80 to 100% and a DC50 of under 0.6 µM.
The corresponding values for `Cc1ncsc1-c1ccc([C@H](C)NC(=O)[C@@H]2C[C@@H](O)CN2C(=O)[C@@H](c2cc(N3CCN(C(=O)OC[C@@H]4CC[C@@]5(COc6nc(N7CC8CCC(C7)N8)c7cnc(-c8cc(O)cc(Cl)c8C(F)(F)F)c(F)c7n6)CCCN45)CC3)no2)C(C)C)cc1` (relative stereo) [Compound 257, [(3S,8R)-8-[[7-[3-chloro-5-hydroxy-2-(trifluoromethyl)phenyl]-4-(3,8-diazabicyclo[3.2.1]octan-3-yl)-8-fluoro-pyrido[4,3-d]pyrimidin-2-yl]oxymethyl]-1,2,3,5,6,7-hexahydropyrrolizin-3-yl]methyl 4-[5-[(1R)-1-[(2S,4R)-4-hydroxy-2-[[(1S)-1-[4-(4-methylthiazol-5-yl)phenyl]ethyl]carbamoyl]pyrrolidine-1-carbonyl]-2-methyl-propyl]isoxazol-3-yl]piperazine-1-carboxylate] are 80 to 100% and under 0.6 µM.
On the same counts, the results for `CCc1cccc2cc(O)cc(-c3ncc4c(N5CC6CCC(C5)N6)nc(OCCN5CC[C@H]6[C@H](CCN6c6cc([C@@H](C(=O)N7C[C@H](O)C[C@H]7C(=O)N[C@@H](C)c7ccc(-c8scnc8C)cc7)C(C)C)on6)C5)nc4c3F)c12` (relative stereo) [Compound 75, (2S,4R)-1-[(2R*)-2-{3-[(3aR**,7aR***)-5-{2-[(4-{3,8-diazabicyclo[3.2.1]octan-3-yl}-7-(8-ethyl-3-hydroxynaphthalen-1-yl)-8-fluoropyrido[4,3-d]pyrimidin-2-yl)oxy]ethyl}-octahydro-1H-pyrrolo[3,2-c]pyridin-1-yl]-1,2-oxazol-5-yl}-3-methylbutanoyl]-4-hydroxy-N-[(1S)-1-[4-(4-methyl-1,3-thiazol-5-yl)phenyl]ethyl]pyrrolidine-2-carboxamide] are 60 to 80% and 1 to 3 µM.

The term Dmax denotes the greatest extent of degradation seen. A lower Dmax goes with a partial loss of target. In general, DC50 refers to the midpoint of the concentration-degradation curve.
